Assay results taken from patent US7527808B2, “Amorphous cefditoren pivoxil composition and process for producing the same” (Meiji Seika Kaisha, Ltd., priority 2001, dated 2009).

How the values were obtained:
[1] = Test 4: dissolution test (Japanese Pharmacopoeia Method 2) in second fluid; format: physicochemical; details: second fluid of the Japanese Pharmacopoeia; dissolved cefditoren pivoxil determined at 272 nm
Method: For each sample shown in Table 2, a dissolution test (see The Japanese Pharmacopoeia, Fourteenth Edition, Part I, General Tests “56. Dissolution test, Method 2”) was carried out in a second fluid specified in the Japanese Pharmacopoeia (a fluid prepared by adding 118 mL of a 0.2 mol/L sodium hydroxide reagent solution and water to 250 mL of a 0.2 mol/L potassium dihydogenphosphate reagent solution; the amount of the water being a sufficient amount to bring the total volume of the fluid to 1,000 mL). The fluid with the sample dissolved therein was sampled at fixed intervals of time and was filtered through a glass filter G-4 manufactured by TOYAMA SANGYO Co., Ltd., and the amount of dissolved cefditoren pivoxil was then quantitatively determined at a measuring wavelength of 272 nm with a spectrophotometer (UV-160, manufactured by Shimadzu Seisakusho Ltd.

[2] = Test 2: thermal analysis, stability against heat by differential scanning calorimeter; format: physicochemical; details: temperature rise rate 10° C./min
Excerpt: The samples shown in Table 2 were examined for stability against heat with a differential scanning calorimeter (model DSC 3100, manufactured by MAC Science).

exothermic peak in DSC curve (transfer to a crystalline state) [2] | SMILES | dissolvability (dissolution curve of cefditoren pivoxil) [1]
 | CO/N=C(\C(=O)N[C@@H]1C(=O)N2C(C(=O)OCOC(=O)C(C)(C)C)=C(/C=C\c3scnc3C)CS[C@H]12)c1csc(N)n1 [crystalline cefditoren pivoxil, (−)-(6R,7R)-7-[(Z)-2-(2-aminothiazol-4-yl)-2-methoxyiminoacetamido]-3-[(Z)-2-(4-methylthiazol-5-yl)ethenyl]-8-oxo-5-thia-1-azabicyclo[4.2.0]oct-2-ene-2-carboxylic acid 2,2-dimethylpropionyloxymethyl ester] | substantially no difference in dissolvability
around 140 °C | CO/N=C(\C(=O)N[C@@H]1C(=O)N2C(C(=O)OCOC(=O)C(C)(C)C)=C(/C=C\c3scnc3C)CS[C@H]12)c1csc(N)n1 [amorphous cefditoren pivoxil, (−)-(6R,7R)-7-[(Z)-2-(2-aminothiazol-4-yl)-2-methoxyiminoacetamido]-3-[(Z)-2-(4-methylthiazol-5-yl)ethenyl]-8-oxo-5-thia-1-azabicyclo[4.2.0]oct-2-ene-2-carboxylic acid 2,2-dimethylpropionyloxymethyl ester] | 
